Peptide text beside a SMILES is read from it.
What was measured:
[1] = target: T1, αIIbβ3 (Homo sapiens, UniProt P08514); experiment: FACS analysis of FITC-fibrinogen binding to platelets; format: cell-based
T1 construct: trapped from a suspension of gel filtered human platelets or CHO cells; endogenous in cells; host or cells: gel-filtered human platelets
Method: Freshly isolated platelets were added to 200 μg/ml FITC-conjugated fibrinogen, then incubated with 20 μM ADP or 2 μM of the anti-αIIb polypeptide in the presence or in the absence of 5 mM EDTA for 3 min at room temperature. After incubation, the platelets were fixed with 0.37% formalin in PBS buffer for 10 min, then washed and examined by FACS analysis as previously reported. See Ulmschneider M B et al. Proteins: Struct. Funct. Bioinformat. 59, 252-265 (2005). The polypeptide was added from a DMSO solution such that the final concentration of DMSO was no greater than 0.5%. All controls also had 0.5% DMSO in the buffer.

[2] = tested on: gel-filtered human platelets; experiment: Platelet aggregation, turbidometric; format: cell-based
Method: Platelet-rich plasma, prepared from human blood anti-coagulated with 0.1 volume of 0.13 M sodium citrate, was gel-filtered on Sepharose 2B (Amersham Biosciences, Piscataway, N.J.) using an elution buffer containing 137 mM NaCl, 2.7 mM KCl, 1 mM MgCl2, 5.6 mM glucose, 0.35 mg/ml bovine serum albumin, 3.3 mM NaH2PO4, and 4 mM HEPES (pH=7.4), as previously described. Jordan P et al. Nature 411, 909-917 (2001). Turbidometric measurements of platelet aggregation were performed in a Chrono-Log Lumi-Dual Aggregometer. Aliquots (0.4 ml) of the gel-filtered platelet suspension were supplemented with 200 μg/ml human fibrinogen (Enzyme Research Labs., South Bend, Ind.) and 1 mM CaCl2 (final concentrations) prior to adding platelet agonists. The polypeptide was added from a DMSO solution such that the final concentration of DMSO was no greater than 0.5%. All controls also had 0.5% DMSO in the buffer.

T1 sequence (P08514 891-1039 limits assumed): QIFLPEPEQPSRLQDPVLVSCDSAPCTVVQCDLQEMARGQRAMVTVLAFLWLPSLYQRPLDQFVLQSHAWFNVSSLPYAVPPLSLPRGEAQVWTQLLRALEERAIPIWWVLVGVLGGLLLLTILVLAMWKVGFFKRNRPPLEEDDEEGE
T1 sequence (P08514 32-887 partner limits assumed): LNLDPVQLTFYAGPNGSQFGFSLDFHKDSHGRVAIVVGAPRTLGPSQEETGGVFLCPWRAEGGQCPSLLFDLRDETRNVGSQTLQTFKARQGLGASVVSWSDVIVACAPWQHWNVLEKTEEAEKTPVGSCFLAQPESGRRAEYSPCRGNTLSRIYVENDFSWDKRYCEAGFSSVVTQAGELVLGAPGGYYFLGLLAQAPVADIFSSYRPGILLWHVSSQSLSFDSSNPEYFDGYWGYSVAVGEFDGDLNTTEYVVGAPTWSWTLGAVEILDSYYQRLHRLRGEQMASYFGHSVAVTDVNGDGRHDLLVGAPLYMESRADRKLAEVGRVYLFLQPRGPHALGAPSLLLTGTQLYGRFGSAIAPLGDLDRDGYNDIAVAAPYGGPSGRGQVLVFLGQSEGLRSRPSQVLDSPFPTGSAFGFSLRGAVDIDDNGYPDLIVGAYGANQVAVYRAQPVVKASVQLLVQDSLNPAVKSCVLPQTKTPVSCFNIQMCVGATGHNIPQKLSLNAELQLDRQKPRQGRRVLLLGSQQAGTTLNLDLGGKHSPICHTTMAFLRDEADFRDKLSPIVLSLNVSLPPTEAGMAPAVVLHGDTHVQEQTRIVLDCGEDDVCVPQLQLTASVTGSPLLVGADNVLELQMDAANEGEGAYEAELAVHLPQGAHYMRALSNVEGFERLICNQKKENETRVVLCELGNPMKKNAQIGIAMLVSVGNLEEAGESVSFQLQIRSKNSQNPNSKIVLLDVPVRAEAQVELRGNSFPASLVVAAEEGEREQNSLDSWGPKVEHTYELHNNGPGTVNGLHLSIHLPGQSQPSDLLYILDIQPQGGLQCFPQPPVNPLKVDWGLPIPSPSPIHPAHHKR
T1 sequence (P05106 27-788 partner): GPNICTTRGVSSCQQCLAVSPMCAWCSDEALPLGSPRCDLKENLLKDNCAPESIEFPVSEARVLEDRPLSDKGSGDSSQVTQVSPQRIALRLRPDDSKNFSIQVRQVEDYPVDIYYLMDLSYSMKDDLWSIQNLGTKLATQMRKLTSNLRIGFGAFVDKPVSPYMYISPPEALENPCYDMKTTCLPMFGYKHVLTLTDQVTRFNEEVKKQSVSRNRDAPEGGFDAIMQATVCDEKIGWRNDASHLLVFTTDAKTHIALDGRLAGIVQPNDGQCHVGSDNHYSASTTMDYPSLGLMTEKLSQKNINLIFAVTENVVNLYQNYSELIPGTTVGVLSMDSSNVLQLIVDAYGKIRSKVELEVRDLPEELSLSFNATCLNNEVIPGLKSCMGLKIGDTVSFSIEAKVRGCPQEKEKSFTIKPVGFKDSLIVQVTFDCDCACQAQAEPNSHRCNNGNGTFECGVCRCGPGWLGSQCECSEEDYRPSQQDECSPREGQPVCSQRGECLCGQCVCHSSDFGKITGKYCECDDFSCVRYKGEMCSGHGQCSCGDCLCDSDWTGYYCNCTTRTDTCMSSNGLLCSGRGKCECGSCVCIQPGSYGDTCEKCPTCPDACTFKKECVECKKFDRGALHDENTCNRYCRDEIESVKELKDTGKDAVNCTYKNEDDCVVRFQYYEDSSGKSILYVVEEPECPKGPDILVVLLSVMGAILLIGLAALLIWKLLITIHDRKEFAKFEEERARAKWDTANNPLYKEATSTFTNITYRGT

How did the “FITC-labeled fibrinogen bound by platelets” value ([1]; 2.0 μM polypeptide, compared with 20 μM ADP) turn out when `CC[C@H](C)[C@H](NC(=O)[C@H](Cc1ccccc1)NC(=O)[C@H](Cc1ccccc1)NC(=O)[C@@H]1CCCN1C(=O)[C@H](CC(C)C)NC(=O)[C@H](CC(C)C)NC(=O)[C@H](CCSC)NC(=O)[C@@H](NC(=O)[C@H](Cc1ccc(O)cc1)NC(=O)[C@H](C)NC(=O)[C@H](CCCCN)NC(=O)[C@@H](N)CCCCN)C(C)C)C(=O)NCC(=O)N[C@@H](CC(C)C)C(=O)N[C@@H](CC(C)C)C(=O)N[C@@H](CC(C)C)C(=O)NCC(=O)N[C@@H](CC(C)C)C(=O)N[C@H](C(=O)N[C@@H](Cc1ccccc1)C(=O)NCC(=O)NCC(=O)N[C@@H](C)C(=O)N[C@@H](Cc1ccccc1)C(=O)N[C@@H](Cc1c[nH]c2ccccc12)C(=O)NCC(=O)N1CCC[C@H]1C(=O)N[C@@H](C)C(=O)N[C@@H](CCCNC(=N)N)C(=O)N[C@@H](Cc1c[nH]cn1)C(=O)N[C@@H](CC(C)C)C(=O)N[C@@H](CCCCN)C(=O)N[C@@H](CCCCN)C(N)=O)[C@@H](C)CC` [anti-αIIb] (H-KKAYVMLLPFFIGLLLGLIFGGAFWGPARHLKK-NH2; N-terminus assumed) was run?
Its value is “comparable amounts”.

What about the “induced fibrinogen binding in the presence of EDTA” value ([1]; 5 mM EDTA) of the same molecule?
Its value is “prevented”.

And the “induced aggregation in the presence of PGE1 and apyrase” value ([2]; 1 μM peptide, 2 μM PGE1, 10 units/ml apyrase)?
Its value is “only minimally affected”.

And the “induced aggregation in the presence of EDTA, Arg-Gly-Asp-Ser or antibody A2A9” value ([2]; agents that directly target αIIbβ3)?
The value was “inhibited”.

And the “platelet aggregation response” value ([2]; gel-filtered human platelets)?
The value was “highly active”.

Reference: US8349791B2, “Polypeptides that bind membrane proteins” (The Trustees of the University of Pennsylvania, priority 2006, dated 2013)
